Experimental data published in ChEMBL document CHEMBL6127102 (Bioorg Med Chem, 2024).
Activity calls are given as the source filed them. The calls are words filed in the database; no cut-off is given here.

Experiments:
[1] = tested on: MDA-MB-231; experiment: Antitumor activity against human MDA-MB-231 cells harboring wild-type BRCA incubated for 72 hrs by MTT assay; assay type: functional, cell-based; conditions: MDA-MB-231, 72 h
[2] = tested on: MDA-MB-468; experiment: Antitumor activity against human MDA-MB-468 cells harboring wild-type BRCA incubated for 72 hrs by MTT assay; assay type: functional, cell-based; conditions: MDA-MB-468, 72 h
[3] = tested on: HCC1937; experiment: Antitumor activity against BRCA 1-deficient human HCC1937 cells incubated for 72 hrs by MTT assay; assay type: functional, cell-based; conditions: HCC1937, 72 h
[4] = tested on: MDA-MB-436; experiment: Antitumor activity against BRCA 1-deficient human MDA-MB-436 cells incubated for 72 hrs by MTT assay; assay type: functional, cell-based; conditions: MDA-MB-436, 72 h
[5] = Cytotoxicity against human MCF-10A cells incubated for 72 hrs by MTT assay; assay type: toxicity, cell-based
[6] = tested on: MDA-MB-231; experiment: Induction of apoptosis in human MDA-MB-231 cells as increase in red fluorescence at 5 uM incubated for 24 hrs by Calcein AM/PI staining based confocal microscopy; assay type: functional, cell-based
[7] = tested on: MDA-MB-231; experiment: Effect on RAF expression in human MDA-MB-231 cells at 5 uM incubated for 24 hrs by Western blot analysis; assay type: functional, cell-based
[8] = tested on: MDA-MB-231; experiment: Effect on CRAF expression in human MDA-MB-231 cells at 5 uM incubated for 24 hrs by Western blot analysis; assay type: functional, cell-based
[9] = tested on: MDA-MB-231; experiment: Effect on MEK phosphorylation in human MDA-MB-231 cells at 5 uM incubated for 24 hrs by Western blot analysis; assay type: functional, cell-based
[10] = tested on: MDA-MB-231; experiment: Effect on ERK1/2 phosphorylation in human MDA-MB-231 cells at 5 uM incubated for 24 hrs by Western blot analysis; assay type: functional, cell-based
[11] = tested on: MDA-MB-231; experiment: Effect on total MEK in human MDA-MB-231 cells at 5 uM incubated for 24 hrs by Western blot analysis; assay type: functional, cell-based
[12] = tested on: MDA-MB-231; experiment: Effect on total ERK1/2 in human MDA-MB-231 cells at 5 uM incubated for 24 hrs by Western blot analysis; assay type: functional, cell-based
[13] = tested on: MDA-MB-231; experiment: Induction of DNA damage in human MDA-MB-231 cells assessed as increase in olive tail moments at 5 uM incubated for 24 hrs by Comet assay; assay type: functional, cell-based
[14] = tested on: MDA-MB-231; experiment: Induction of ROS generation in human MDA-MB-231 cells at 5 uM incubated for 24 hrs by DCFH-DA staining based flow cytometric analysis; assay type: functional, cell-based
[15] = molecular target: Poly [ADP-ribose] polymerase 1 (Homo sapiens, UniProt P09874); experiment: Inhibition of PARP1 (unknown origin) using histone as substrate incubated for 60 mins by ELISA
Poly [ADP-ribose] polymerase 1, sequence (P09874 whole entry): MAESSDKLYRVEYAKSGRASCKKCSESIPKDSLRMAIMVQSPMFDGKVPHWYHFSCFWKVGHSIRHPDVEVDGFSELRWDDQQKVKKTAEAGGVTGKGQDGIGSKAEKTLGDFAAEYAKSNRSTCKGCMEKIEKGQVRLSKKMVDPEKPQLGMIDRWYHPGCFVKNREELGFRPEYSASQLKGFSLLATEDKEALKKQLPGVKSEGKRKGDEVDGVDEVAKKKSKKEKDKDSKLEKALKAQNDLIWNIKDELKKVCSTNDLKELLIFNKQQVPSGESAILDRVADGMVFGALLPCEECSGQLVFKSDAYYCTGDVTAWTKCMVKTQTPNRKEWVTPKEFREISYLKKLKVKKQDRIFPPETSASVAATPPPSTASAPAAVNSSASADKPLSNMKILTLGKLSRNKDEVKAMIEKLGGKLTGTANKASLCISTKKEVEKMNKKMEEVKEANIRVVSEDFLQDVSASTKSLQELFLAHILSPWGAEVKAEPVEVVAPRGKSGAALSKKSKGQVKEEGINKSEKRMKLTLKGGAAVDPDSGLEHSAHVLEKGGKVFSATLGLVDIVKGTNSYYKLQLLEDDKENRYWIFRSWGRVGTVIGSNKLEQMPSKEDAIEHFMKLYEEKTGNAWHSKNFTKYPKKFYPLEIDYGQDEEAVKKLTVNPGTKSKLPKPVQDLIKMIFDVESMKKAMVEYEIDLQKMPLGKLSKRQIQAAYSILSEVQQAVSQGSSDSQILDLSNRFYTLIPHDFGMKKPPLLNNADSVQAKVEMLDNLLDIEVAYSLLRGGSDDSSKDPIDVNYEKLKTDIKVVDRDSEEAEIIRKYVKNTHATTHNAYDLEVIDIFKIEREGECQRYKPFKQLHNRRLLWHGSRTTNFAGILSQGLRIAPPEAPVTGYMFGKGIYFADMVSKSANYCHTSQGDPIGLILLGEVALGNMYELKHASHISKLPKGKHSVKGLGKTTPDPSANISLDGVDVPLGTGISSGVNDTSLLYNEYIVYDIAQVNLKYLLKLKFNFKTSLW

[16] = tested on: MDA-MB-231; experiment: Induction of DNA damage in human MDA-MB-231 cells assessed as increase in gamma-H2AX level at 5 uM incubated for 24 hrs by immunofluorescence based analysis; assay type: functional, cell-based
[17] = tested on: MDA-MB-231; experiment: Induction of apoptosis in human MDA-MB-231 cells at 5 uM incubated for 24 hrs by Annexin V-FITC/PI staining based flow cytometry relative to control; assay type: functional
[18] = tested on: MDA-MB-231; experiment: (§1) Induction of depolarization of mitochondrial membrane potential in human MDA-MB-231 cells at 5 uM incubated for 24 hrs by JC-1 staining based flow cytometry relative to control; assay type: functional
[19] = tested on: MDA-MB-231; experiment: Anti-migration activity in human MDA-MB-231 cells assessed as wound closure area at 1 uM incubated for 24 hrs by wound healing assay (reference value: 75.6 %); assay type: functional
[20] = tested on: MDA-MB-231; experiment: […] activity in human MDA-MB-231 cells at 1 uM incubated for 24 hrs by wound healing assay; assay type: functional, cell-based
[21] = tested on: MDA-MB-231; experiment: Induction of apoptosis in human MDA-MB-231 cells assessed as increase in Bax level at 5 uM incubated for 24 hrs by Western blot analysis; assay type: functional, cell-based
[22] = tested on: MDA-MB-231; experiment: Induction of apoptosis in human MDA-MB-231 cells assessed as decrease in Bcl-2 level at 5 uM incubated for 24 hrs by Western blot analysis; assay type: functional, cell-based
[23] = tested on: MDA-MB-231; experiment: Induction of apoptosis in human MDA-MB-231 cells assessed as increase in cleaved PARP level at 5 uM incubated for 24 hrs by Western blot analysis; assay type: functional, cell-based
[24] = tested on: MDA-MB-231; experiment: Induction of apoptosis in human MDA-MB-231 cells assessed as increase in cleaved caspase-3 level at 5 uM incubated for 24 hrs by Western blot analysis; assay type: functional, cell-based
[25] = tested on: MDA-MB-231; experiment: Induction of apoptosis in human MDA-MB-231 cells assessed as increase in cleaved caspase-9 level at 5 uM incubated for 24 hrs by Western blot analysis; assay type: functional, cell-based
[26] = tested on: MDA-MB-231; experiment: Antitumor activity against human MDA-MB-231 cells xenografted in BALB/c nude mouse at 38 mg/kg, ip administered on every 2 days for 28 days relative to control; assay type: functional; conditions: MDA-MB-231, 672 h, time 28 day, read-out: TGI
[27] = Toxicity in BALB/c nude mouse xenografted with human MDA-MB-231 cells assessed as body weight change at 38 mg/kg, ip administered on every 2 days for 28 days; assay type: organism-based; conditions: in vivo, 672 h, time 28 day
[28] = Toxicity in BALB/c nude mouse xenografted with human MDA-MB-231 cells assessed as drug tolerance at 38 mg/kg, ip administered on every 2 days for 28 days; assay type: organism-based; conditions: in vivo, 672 h, time 28 day
[29] = tested on: MDA-MB-231; experiment: Antitumor activity against human MDA-MB-231 cells xenografted in BALB/c nude mouse assessed as increase in apoptotic cells at 38 mg/kg, ip administered on every 2 days for 28 days by H and E staining based analysis; assay type: functional, organism-based; conditions: time 28.0 day
[30] = tested on: MDA-MB-231; experiment: Antitumor activity against human MDA-MB-231 cells xenografted in BALB/c nude mouse assessed as increase in necrotic cells at 38 mg/kg, ip administered on every 2 days for 28 days by H and E staining based analysis; assay type: functional, organism-based; conditions: time 28.0 day
[31] = tested on: MDA-MB-231; experiment: Antitumor activity against human MDA-MB-231 cells xenografted in BALB/c nude mouse assessed as decrease in Ki-67 expression at 38 mg/kg, ip administered on every 2 days for 28 days by H and E staining based analysis; assay type: functional, organism-based; conditions: time 28.0 day
[32] = Toxicity in BALB/c nude mouse xenografted with human MDA-MB-231 cells assessed as damage in heart at 38 mg/kg, ip administered on every 2 days for 28 days by H and E staining based analysis; assay type: organism-based; conditions: in vivo, 672 h, time 28 day
[33] = Toxicity in BALB/c nude mouse xenografted with human MDA-MB-231 cells assessed as damage in liver at 38 mg/kg, ip administered on every 2 days for 28 days by H and E staining based analysis; assay type: organism-based; conditions: in vivo, 672 h, time 28 day
[34] = Toxicity in BALB/c nude mouse xenografted with human MDA-MB-231 cells assessed as damage in spleen at 38 mg/kg, ip administered on every 2 days for 28 days by H and E staining based analysis; assay type: organism-based; conditions: in vivo, 672 h, time 28 day
[35] = Toxicity in BALB/c nude mouse xenografted with human MDA-MB-231 cells assessed as damage in lung at 38 mg/kg, ip administered on every 2 days for 28 days by H and E staining based analysis; assay type: organism-based; conditions: in vivo, 672 h, time 28 day
[36] = Toxicity in BALB/c nude mouse xenografted with human MDA-MB-231 cells assessed as damage in kidney at 38 mg/kg, ip administered on every 2 days for 28 days by H and E staining based analysis; assay type: organism-based; conditions: in vivo, 672 h, time 28 day
[37] = as §1; assay type: functional
[38] = tested on: MDA-MB-231; experiment: Anti-migration activity in human MDA-MB-231 cells at 1 uM incubated for 24 hrs by wound healing assay; assay type: functional, cell-based
[39] = tested on: MDA-MB-231; experiment: Antitumor activity against human MDA-MB-231 cells xenografted in BALB/c nude mouse at 23 mg/kg, ip administered on every 2 days for 28 days relative to control; assay type: functional; conditions: MDA-MB-231, 672 h, time 28 day, read-out: TGI
[40] = tested on: MDA-MB-231; experiment: Antitumor activity against human MDA-MB-231 cells xenografted in BALB/c nude mouse at 23 mg/kg, ip administered on every 2 days for 28 days in presence of Olaparib relative to control; assay type: functional; conditions: MDA-MB-231, 672 h, time 28 day, read-out: TGI
[41] = Toxicity in BALB/c nude mouse xenografted with human MDA-MB-231 cells assessed as body weight change at 23 mg/kg, ip administered on every 2 days for 28 days; assay type: organism-based; conditions: in vivo, 672 h, time 28 day
[42] = Toxicity in BALB/c nude mouse xenografted with human MDA-MB-231 cells assessed as body weight change at 23 mg/kg, ip administered on every 2 days for 28 days in presence of Olaparib; assay type: organism-based; conditions: in vivo, 672 h, time 28 day
[43] = Toxicity in BALB/c nude mouse xenografted with human MDA-MB-231 cells assessed as drug tolerance at 23 mg/kg, ip administered on every 2 days for 28 days; assay type: organism-based; conditions: in vivo, 672 h, time 28 day
[44] = Toxicity in BALB/c nude mouse xenografted with human MDA-MB-231 cells assessed as drug tolerance at 23 mg/kg, ip administered on every 2 days for 28 days in presence of Olaparib; assay type: organism-based; conditions: in vivo, 672 h, time 28 day
[45] = tested on: MDA-MB-231; experiment: Antitumor activity against human MDA-MB-231 cells xenografted in BALB/c nude mouse assessed as increase in apoptotic cells at 23 mg/kg, ip administered on every 2 days for 28 days by H and E staining based analysis; assay type: functional, organism-based; conditions: time 28.0 day
[46] = tested on: MDA-MB-231; experiment: Antitumor activity against human MDA-MB-231 cells xenografted in BALB/c nude mouse assessed as increase in necrotic cells at 23 mg/kg, ip administered on every 2 days for 28 days by H and E staining based analysis; assay type: functional, organism-based; conditions: time 28.0 day
[47] = tested on: MDA-MB-231; experiment: Antitumor activity against human MDA-MB-231 cells xenografted in BALB/c nude mouse assessed as decrease in Ki-67 expression at 23 mg/kg, ip administered on every 2 days for 28 days by H and E staining based analysis; assay type: functional, organism-based; conditions: time 28.0 day
[48] = tested on: MDA-MB-231; experiment: Antitumor activity against human MDA-MB-231 cells xenografted in BALB/c nude mouse assessed as increase in apoptotic cells at 23 mg/kg, ip administered on every 2 days for 28 days in presence of Olaparib by H and E staining based analysis; assay type: functional, organism-based; conditions: time 28.0 day
[49] = tested on: MDA-MB-231; experiment: Antitumor activity against human MDA-MB-231 cells xenografted in BALB/c nude mouse assessed as increase in necrotic cells at 23 mg/kg, ip administered on every 2 days for 28 days in presence of Olaparib by H and E staining based analysis; assay type: functional, organism-based; conditions: time 28.0 day
[50] = tested on: MDA-MB-231; experiment: Antitumor activity against human MDA-MB-231 cells xenografted in BALB/c nude mouse assessed as decrease in Ki-67 expression at 23 mg/kg, ip administered on every 2 days for 28 days in presence of Olaparib by H and E staining based analysis; assay type: functional, organism-based; conditions: time 28.0 day

Compound	IC50 [1]	IC50 [2]	IC50 [3]	IC50 [4]	IC50 at 72 h [5]	Activity [6]	Activity [7]	Activity [8]	Activity [9]	Activity [10]	Activity [11]	Activity [12]	Activity [13]	Activity [14]	Activity [16]	Activity [17]	Activity [20]	Activity [21]	Activity [22]	Activity [23]	further results
COc1cc(OC)c(/C=C/S(=O)(=O)Cc2ccc(OC)c(NCCCC(=O)N3CCN(C(=O)c4cc(Cc5n[nH]c(=O)c6ccccc56)ccc4F)CC3)c2)c(OC)c1	750 nM	1240 nM	1170 nM	970 nM	> 40000 nM	Active	Active	Active	Active	Active	inactive	inactive	Active	Active	Active	48.26%	Active	Active	Active	Active	IC50 [15]: 112 nM; Activity [18]: Active; Activity [19]: 17.3%; Activity [24]: Active; Activity [25]: Active; inhibition in vivo at 38 mg/kg [26]: 61.3%; Activity [27]: Non-Toxic; Activity [28]: Non-Toxic; Activity [29]: Active; Activity [30]: Active; Activity [31]: Active; Activity [32]: Non-Toxic; Activity [33]: Non-Toxic; Activity [34]: Non-Toxic; Activity [35]: Non-Toxic; Activity [36]: Non-Toxic
COc1cc(OC)c(/C=C/S(=O)(=O)Cc2ccc(OC)c(NCCCC(=O)O)c2)c(OC)c1	1870 nM	2330 nM	1080 nM	2110 nM	30600 nM	Active	inactive	Active	Active	Active	inactive	inactive	Active	Active	Active	31.1%	Active	Active	Active	Active	Activity [37]: 31.56%; Activity [38]: Active; Activity [24]: Active; Activity [25]: Active; inhibition in vivo at 23 mg/kg [39]: 51.8%; inhibition in vivo at 23 mg/kg [40]: 56.7%; Activity [41]: Non-Toxic; Activity [42]: Non-Toxic; Activity [43]: Non-Toxic; Activity [44]: Non-Toxic; Activity [45]: Active; Activity [46]: Active; Activity [47]: Active; Activity [48]: Active; Activity [49]: Active; Activity [50]: Active
